Measurements from EP0394553A2, “Use of fluorine containing pyridone carboxylic acid derivatives for preparing a medicament for the treatment of HIV infections” (DAIICHI PHARMACEUTICAL CO., LTD., priority 1989, dated 1990).
Read-outs that look alike come from different tables or passages of the source.

System: HIV (LAV 1)
Assay: microbe, parasite or virus in culture
Details: for Viable cell count / Viral antigen-positive cell percentage: 4-day addition; for viability at 1 µg/mL / viability at 10 µg/mL: Human immunodeficiency virus 1, CCRF-CEM
Experimental: Human T cell-derived, T4 antigen-positive CEM cells (provided by the Institut Pasteur, France) were used as host cells of HIV. Cell culture was carried out in a carbon dioxide-containing atmosphere in an incubator maintained at 37°C according to a conventional method [cf. […] The culture supernatant (5×10⁶ TCID₅₀/ml) obtained by subjecting CEM cells to HIV (LAV 1) infection and stored at -70°C was used as the HIV source.
The medium for cell culture (10 ml) placed in a plastic culture flask (25 cm²) was inoculated with CEM cells at a cell density of 2.5×10⁵ cells/ml. After 3 days of incubation, the culture was transferred to a 15-ml centrifuge tube and subjected to centrifugation at 1,000 revolutions per minute for 5 minutes for sedimentation of cells and removal of the culture medium.
The stock viral suspension was added to the host cells thus prepared to an MOI of 0.05 and the mixture was maintained at 37°C for 90 minutes with stirring at 30-minute intervals for viral adsorption. The medium was added to HIV-infected cells to a cell density of 5.0×10⁵ cells/ml to give an HIV-infected cell suspension.
A mixture (1.0 ml) of the three constituents mentioned below was added to each well of a 24-well plastic culture plate and the test substance final concentration was adjusted to 10 mcg/ml, 5 mcg/ml, 2.5 mcg/ml or 1 mcg/ml. The "no addition" wells (0 mcg/ml) served as controls.
After 4 days of incubation following viral infection, the cells in each well on the 24-well culture plate were suspended uniformly by pipetting and a 0.5-ml portion of the suspension was separated. A 2.0-ml portion of test substance-free fresh medium was added to the remaining 0.5-ml portion of the cell suspension, followed by incubation.
Seven days after viral infection, pipetting was performed to give a uniform cell suspension in each well and a 0.5-ml portion of the suspension was separated.
Incubation was continued and, 10 days after viral infection, a uniform cell suspension was produced in the same manner in each well and a 1.5-ml portion thereof was separated. A fresh 2.0-ml portion of the medium free of (or containing) the test substance was added to the well, followed by further incubation.
Fifteen days after viral infection, the cells in each well were suspended uniformly in the same manner in the medium and a 2.0-ml portion of the suspension was separated. A fresh 2.0-ml portion of the medium free of (or containing) the test substance was added to the remaining 0.5 ml of the cell suspension and incubation was continued.
Medium exchange was performed in the same manner 20 days and 25 days after viral infection.
The cell suspensions collected 4 days, 7 days, 10 days, 20 days and 30 days after viral infection were tested for viable cell count and viable cell percentage by trypan blue staining. At the same time, viral antigen-positive cell percentage determination was carried out by immunofluorescence using an anti-HIV antiserum isolated from a healthy carrier of HIV.
The numerical values given each is the mean for the respective two wells on the culture plate. The viable cell count is the total cell count minus the count of dead cells stained with trypan blue. The viable cell percentage is the percentage of viable cells among all the cells including dead cells. The viral antigen-positive cell percentage is the percentage of cells indicating antigen expression as found among all the cells including dead cells.

[1] = 96 h, read-out: Viable cell percentage, 1 mcg/ml, 4-day addition, after 4 days
[2] = 96 h, read-out: Viable cell percentage, 10 mcg/ml, 4-day addition, after 4 days
[3] = read-out: Viable cell percentage, 1 mcg/ml, 4-day addition, after 7 days
[4] = read-out: Viable cell percentage, 1 mcg/ml, 4-day addition, after 10 days
[5] = read-out: Viable cell percentage, 1 mcg/ml, 4-day addition, after 20 days
[6] = read-out: Viable cell percentage, 1 mcg/ml, 4-day addition, after 30 days
[7] = read-out: Viable cell percentage, 10 mcg/ml, 4-day addition, after 7 days
[8] = read-out: Viable cell percentage, 10 mcg/ml, 4-day addition, after 10 days
[9] = read-out: Viable cell percentage, 10 mcg/ml, 4-day addition, after 20 days
[10] = read-out: Viable cell percentage, 10 mcg/ml, 4-day addition, after 30 days

Row | SMILES | Viable cell count (1 mcg/ml, after 4 days) | Viral antigen-positive cell percentage (1 mcg/ml, after 4 days) | Viable cell count (1 mcg/ml, after 7 days) | Viral antigen-positive cell percentage (1 mcg/ml, after 7 days) | Viable cell count (1 mcg/ml, after 10 days) | Viable cell count (1 mcg/ml, after 20 days) | Viable cell count (1 mcg/ml, after 30 days) | Viable cell count (10 mcg/ml, after 4 days) | Viral antigen-positive cell percentage (10 mcg/ml, after 4 days) | Viable cell count (10 mcg/ml, after 7 days) | Viral antigen-positive cell percentage (10 mcg/ml, after 7 days) | Viable cell count (10 mcg/ml, after 10 days) | Viral antigen-positive cell percentage (10 mcg/ml, after 10 days) | Viable cell count (10 mcg/ml, after 20 days) | Viral antigen-positive cell percentage (10 mcg/ml, after 20 days) | Viable cell count (10 mcg/ml, after 30 days) | Viral antigen-positive cell percentage (10 mcg/ml, after 30 days) | viability at 1 µg/mL [1] | viability at 10 µg/mL [2] | viability at 1 µg/mL [3] | other results
1 | CCN1CCN(c2c(F)cc3c(=O)c(C(=O)O)cn4c3c2OCC4C)CC1 (racemic) [IIIa, (±)-9-Fluoro-3-methyl-10-(4-ethyl-1-piperazinyl)-7-oxo-2,3-dihydro-7H-pyrido[1,2,3-de][1,4]benzoxazine-6-carboxylic acid] | 240 × 10⁴ cells/ml | 72% | 37 × 10⁴ cells/ml | 65% | 19 × 10⁴ cells/ml | 20 × 10⁴ cells/ml | 14 × 10⁴ cells/ml | 180 × 10⁴ cells/ml | 82% | 61 × 10⁴ cells/ml | 75% | 260 × 10⁴ cells/ml | 26% | 310 × 10⁴ cells/ml | 18% | 330 × 10⁴ cells/ml | 6% | 92% | 88% | 57% | Viral antigen-positive cell percentage (1 mcg/ml, after 10 days): 30%; Viral antigen-positive cell percentage (1 mcg/ml, after 20 days): 20%; viability at 1 µg/mL [4]: 30%; viability at 1 µg/mL [5]: 78%; viability at 1 µg/mL [6]: 40%; viability at 10 µg/mL [7]: 74%; viability at 10 µg/mL [8]: 93%; viability at 10 µg/mL [9]: 91%; viability at 10 µg/mL [10]: 94%
2 | CCCN1CCN(c2c(F)cc3c(=O)c(C(=O)O)cn4c3c2OCC4C)CC1 (racemic) [IIIb, (±)-9-Fluoro-3-methyl-10-(4-n-propyl-1-piperazinyl)-7-oxo-2,3-dihydro-7H-pyrido[1,2,3-de][1,4]benzoxazine-6-carboxylic acid] | 220 × 10⁴ cells/ml | 88% | 53 × 10⁴ cells/ml | 62% | 19 × 10⁴ cells/ml | 25 × 10⁴ cells/ml | 14 × 10⁴ cells/ml | 190 × 10⁴ cells/ml | 80% | 62 × 10⁴ cells/ml | 50% | 240 × 10⁴ cells/ml | 40% | 320 × 10⁴ cells/ml | 13% | 300 × 10⁴ cells/ml | 4% | 89% | 89% | 75% | viability at 1 µg/mL [4]: 27%; viability at 1 µg/mL [5]: 81%; viability at 1 µg/mL [6]: 36%; viability at 10 µg/mL [7]: 70%; viability at 10 µg/mL [8]: 83%; viability at 10 µg/mL [9]: 92%; viability at 10 µg/mL [10]: 94%
3 | CCCCN1CCN(c2c(F)cc3c(=O)c(C(=O)O)cn4c3c2OCC4C)CC1 (racemic) [IIIc, (±)-9-Fluoro-3-methyl-10-(4-n-butyl-1-piperazinyl)-7-oxo-2,3-dihydro-7H-pyrido[1,2,3-de][1,4]benzoxazine-6-carboxylic acid] | 220 × 10⁴ cells/ml | 82% | 46 × 10⁴ cells/ml | 70% | 28 × 10⁴ cells/ml | 10 × 10⁴ cells/ml | 10 × 10⁴ cells/ml | 200 × 10⁴ cells/ml | 80% | 51 × 10⁴ cells/ml | 47% | 250 × 10⁴ cells/ml | 9% | 340 × 10⁴ cells/ml | 9% | 320 × 10⁴ cells/ml | 3% | 87% | 92% | 60% | viability at 1 µg/mL [4]: 33%; viability at 1 µg/mL [5]: 55%; viability at 1 µg/mL [6]: 32%; viability at 10 µg/mL [7]: 67%; viability at 10 µg/mL [8]: 93%; viability at 10 µg/mL [9]: 93%; viability at 10 µg/mL [10]: 95%
4 | CC(C)N1CCN(c2c(F)cc3c(=O)c(C(=O)O)cn4c3c2OCC4C)CC1 (racemic) [IIId, (±)-9-Fluoro-3-methyl-10-(4-isopropyl-1-piperazinyl)-7-oxo-2,3-dihydro-7H-pyrido[1,2,3-de][1,4]benzoxazine-6-carboxylic acid] | 250 × 10⁴ cells/ml | 72% | 50 × 10⁴ cells/ml | 70% | 24 × 10⁴ cells/ml | 12 × 10⁴ cells/ml | 9 × 10⁴ cells/ml | 190 × 10⁴ cells/ml | 78% | 60 × 10⁴ cells/ml | 50% | 280 × 10⁴ cells/ml | 25% | 290 × 10⁴ cells/ml | 11% | 300 × 10⁴ cells/ml | 4% | 91% | 88% | 62% | viability at 1 µg/mL [4]: 28%; viability at 1 µg/mL [5]: 60%; viability at 1 µg/mL [6]: 31%; viability at 10 µg/mL [7]: 67%; viability at 10 µg/mL [8]: 91%; viability at 10 µg/mL [9]: 95%; viability at 10 µg/mL [10]: 94%
